Values joined by “and” are separate entries in the source; they are usually repeats but may differ in a detail not shown here. Identical values can stand only once.
Key:
Rattus norvegicus [1] = settings: oral
Rattus norvegicus [2] = settings: oral, gavage, Sprague-Dawley; for NOEL: short-term, duration: 28 days, Clinical Observation: Soft feces + Urinalysis: pH decrease + Hematology: PT increase, APTT increase + Blood Chemistry: T-CHO increase, T-BIL…
Rattus norvegicus [3] = settings: acute; oral; Sprague-Dawley
Mus musculus = settings: oral, drinking water
Rattus norvegicus [4] = settings: oral; remark: listed apart in the source
[5] = subchronic, duration: 90 days, diet, M/F, reduced body weight
[6] = developmental, diet, M/F, increased body weight and liver weight, reduced ossification and slightly dilated ureters in fetuses, reduced offspring weight gain, total …
[7] = chronic, duration: 2 years, diet, M/F, reduced body weight
[8] = developmental, M/F, reduced pup survival
[9] = chronic, M/F, kidney damage and reduced lifespan
[10] = chronic, duration: 6 months, M, Kunming, novel object test (discrimination index) + open field (outer zone entry events)
[11] = chronic, duration: 6 months, M, Kunming, open field (center square entry events) + open field (middle zone line cross events)
[12] = chronic, duration: 6 months, drinking water, M/F, Sprague-Dawley, Morris water maze (escape time, acquisition, day 1)
[13] = developmental, drinking water, M/F, Wistar, generation: F1, F1: activity time (developmental phase III) + F1: open field (squares traveled, 9 min)

**Q.** `CCCCOC(=O)COC(=O)c1ccccc1C(=O)OCCCC` was tested. Which NOEL (Rattus norvegicus [1]; chronic, no effects) did it give?
**A.** 1000 mg/kg-day

**Q.** `ClCC(Cl)(Cl)Cl` [1,1,1,2-Tetrachloroethane] was tested. Which LOAEL (Rattus norvegicus [1]; chronic, gavage, M/F, mineralization of the kidneys (males), hepatic clear cell change (females)) did it give?
**A.** 125 mg/kg-day

**Q.** How did the LOAEL (Rattus norvegicus [1]; subchronic, duration: 90 days, gavage, M/F, nasal olfactory lesions) turn out when `C1CSCCS1` [1,4-Dithiane] was run?
**A.** 105 mg/kg-day

**Q.** For `CCC(C)(C)c1ccc(O)c(C(C)(C)CC)c1` [2,4-Di-tert-pentylphenol], which NOAEL (Rattus norvegicus [2]; subchronic, M, Deaths + Clinical Observation: Salivation/100 Soft feces/100 + Body Weight Changes: Body weight gain decrease + Urinalysis: Volume increase…) is on record?
**A.** 10 mg/kg-day

**Q.** And the LD50 (Rattus norvegicus [3])?
**A.** 920 mg/kg

**Q.** Which NOEL (Rattus norvegicus [2]; F) does the source give for `CCC(C)c1cc(C(C)(C)C)c(O)c(C(C)(C)C)c1` (stereo not drawn) [4-(Butan-2-yl)-2,6-di-tert-butylphenol] here?
**A.** < 15 mg/kg-day

**Q.** What about the NOEL (Rattus norvegicus [2]; M) of the same compound?
**A.** 15 mg/kg-day

**Q.** And the LC50 (Rattus norvegicus [3])?
**A.** 4800 mg/kg

**Q.** What does the source list for `NS(=O)(=O)[O-].[NH4+]` [Ammonium sulfamate]?
**A.** LEL (Rattus norvegicus [1]; [5]): 500 mg/kg-day; NOEL (Rattus norvegicus [1]; [5]): 250 mg/kg-day and 214 mg/kg-day

**Q.** `COC(=O)NS(=O)(=O)c1ccc(N)cc1` [Asulam] was tested. Which LEL (Rattus norvegicus [1]; reproduction developmental, F, reduced ovarian weight, lower liver/body weight) did it give?
**A.** 50 mg/kg-day

**Q.** What does the source list for `CCCCC(CC)COC(=O)CCCCC(=O)OCC(CC)CCCC` (stereo not drawn) [Bis(2-ethylhexyl)hexanedioate]?
**A.** LOAEL (Rattus norvegicus [1]; [6]): 1080 mg/kg-day; NOAEL (Rattus norvegicus [1]; [6]): 170 mg/kg-day

**Q.** With `CCCCN(CCCC)SN(C)C(=O)Oc1cccc2c1OC(C)(C)C2` [Carbosulfan] as the compound, how does the LEL (Rattus norvegicus [1]; [7]) read?
**A.** 25 mg/kg-day

**Q.** What about the NOEL (Rattus norvegicus [1]; [7]) of the same compound?
**A.** 1 mg/kg-day

**Q.** What does the source list for `COP(=O)(OC)O/C(C)=C/C(=O)N(C)C` [Dicrotophos]?
**A.** LEL (Rattus norvegicus [1]; [8]): 0.25 mg/kg-day; NOEL (Rattus norvegicus [1]; [8]): 0.1 mg/kg-day

**Q.** How did the LEL (Rattus norvegicus [1]; [7]) turn out when `Cn1c(-c2ccccc2)cc(-c2ccccc2)[n+]1C` [Difenzoquat] was run?
**A.** 125 mg/kg-day

**Q.** What about the NOEL (Rattus norvegicus [1]; [7]) of the same compound?
**A.** 25 mg/kg-day

**Q.** `CCOC(=O)COC(=O)c1ccccc1C(=O)OCC` [Ethyl phthalyl ethyl glycolate] was tested. Which LOAEL (Rattus norvegicus [1]; [9]) did it give?
**A.** 2500 mg/kg-day

**Q.** What about the NOEL (Rattus norvegicus [1]; [9]) of the same compound?
**A.** 250 mg/kg-day

**Q.** What does the source list for `[F-]` [Fluoride]?
**A.** LOEL (Mus musculus; chronic, duration: 6 months, M/F, Kunming, active avoidance (shuttle box, 1st trial number where 3 consecutive conditioned avoidance responses occurred) + active avoidance (shuttle …): 2.63 mg/kg-day; NOEL (Mus musculus; chronic, duration: 6 months, M/F, Kunming, active avoidance (shuttle box, response latency to conditioned avoidance response averaged over 150 trials)): 26.3 mg/kg-day; LOEL (Mus musculus; [10]): 11.5 mg/kg-day; NOEL (Mus musculus; [10]): 5.63 mg/kg-day; NOEL (Mus musculus; chronic, duration: 6 months, M, Kunming, novel object test (time exploring familiar object, long-term memory phase) + novel object test (time exploring familiar object, short-term …): 11.5 mg/kg-day; LOEL (Mus musculus; [11]): 5.63 mg/kg-day; NOEL (Mus musculus; [11]): 2.82 mg/kg-day; LOEL (Mus musculus; chronic, duration: 6 months, M, Kunming, open field (middle zone entry events) + open field (outer zone line cross events) + open field (total distance moved)): 2.82 mg/kg-day; LOEL (Mus musculus; subchronic, duration: 90 days, M, Swiss, open field (defecation) + open field (grooming events) + open field (rearing events) + open field (squares crossed)): 9.58 mg/kg-day; NOEL (Mus musculus; subchronic, duration: 90 days, M, Swiss, tail suspension test (immobility time, total 6 min)): 9.58 mg/kg-day; NOEL (Rattus norvegicus [4]; chronic, duration: 4 months, diet, M, Hooded, T-maze, multiple (number of errors, acquisition, trial 1) + T-maze, multiple (number of errors, retention, trial 9) + T-maze, multiple (time…): 6.13 mg/kg-day; LOEL (Rattus norvegicus [4]; [12]): 5.96 mg/L urine; NOEL (Rattus norvegicus [4]; [12]): 2.59 mg/L urine; NOEL (Rattus norvegicus [4]; chronic, duration: 6 months, drinking water, M/F, Sprague-Dawley, Morris water maze (escape time, acquisition, day 5)): 5.96 mg/L urine; NOEL (mg/kg ash femur) (Rattus norvegicus [4]; chronic, duration: 8 months, drinking water, F, Sprague-Dawley, acquisition of the bar press response (days to reach learning criteria) + acquisition of the bar press response (maximum response)): 14800; NOEL (Rattus norvegicus [4]; chronic, duration: 16 weeks, drinking water, F, Sprague-Dawley, activity box (attention cluster, total time) + activity box (groom cluster, initiations) + activity box (groom cluster, total time) + …): 19 mg/kg-day; LOEL (Rattus norvegicus [4]; chronic, duration: 16 weeks, drinking water, F, Sprague-Dawley, activity box (groom/attention cluster initiations) + activity box (groom/attention cluster total time) + activity box (groom/explore cluster…): 19 mg/kg-day; LOEL (Rattus norvegicus [4]; chronic, duration: 16 weeks, drinking water, M, Sprague-Dawley, activity box (attention cluster, total time) + activity box (groom cluster, initiations) + activity box (groom cluster, total time) + …): 19 mg/kg-day; NOEL (Rattus norvegicus [4]; chronic, duration: 16 weeks, drinking water, M, Sprague-Dawley, activity box (groom/attention cluster, total time) + activity box (head turn, initiations) + activity box (head turn, total time)): 19 mg/kg-day; NOEL (Rattus norvegicus [4]; chronic, duration: 104 days, drinking water, M, Sprague-Dawley, Von Frey hair test (withdrawal threshold, day 0)): 20.8 mg/kg-day; LOEL (Rattus norvegicus [4]; chronic, duration: 104 days, drinking water, M, Sprague-Dawley, tail immersion (withdrawal latency to heat, day 112) + Von Frey hair test (withdrawal threshold, day 104)): 10.4 mg/kg-day; NOEL (Rattus norvegicus [4]; chronic, duration: 195 days, drinking water, M, Lou/C, tail immersion (withdrawal latency to heat, 195 days) + Von Frey hair test (withdrawal threshold, 195 days) + Von Frey hair test (withdrawal…): 20.8 mg/kg-day; LOEL (Rattus norvegicus [4]; developmental, drinking water, F, Wistar, generation: F1, F1: pain response (latency time to respond to hot plate)): 5.29 mg/kg-day; LOEL (Rattus norvegicus [4]; developmental, drinking water, M/F, Sprague-Dawley, generation: F1, F1: Morris water maze (escape time, acquisition, average over days 1-4) + F1: Morris water maze (platform crossing, probe test, day 5) + F1…): 3.27 mg/kg-day; NOEL (Rattus norvegicus [4]; developmental, drinking water, M/F, Wistar, generation: F1, F1: Morris water maze (number of errors, acquisition) + F1: Morris water maze (time to find platform, probe test)): 1.06 mg/kg-day; LOEL (Rattus norvegicus [4]; developmental, drinking water, M/F, Wistar, generation: F1, F1: Morris water maze (number of errors, acquisition) + F1: Morris water maze (time to find platform, probe test) + F1: open field (face …): 5.29 mg/kg-day; LOEL (Rattus norvegicus [4]; developmental, drinking water, M/F, Wistar, generation: F1, F1: T-maze (number of errors, retention phase) + F1: T-maze (number of sessions to reach learning criterion)): 16 mg/kg-day; NOEL (Rattus norvegicus [4]; developmental, drinking water, M/F, Wistar, generation: F1, F1: activity time (developmental phase I) + F1: activity time (developmental phase II) + F1: activity time (developmental phase III) + F1: …): 5.29 mg/kg-day; LOEL (Rattus norvegicus [4]; [13]): 1.06 mg/kg-day; NOEL (Rattus norvegicus [4]; [13]): 0.21 mg/kg-day; LOEL (Rattus norvegicus [4]; developmental, drinking water, M/F, Wistar, generation: F1, F1: open field (face scrubbing events, 9 min)): 0.21 mg/kg-day; LOEL (Rattus norvegicus [4]; developmental, drinking water, M/F, Wistar, generation: F2, F2: T-maze (number of errors, retention phase) + F2: T-maze (number of sessions to reach learning criterion)): 16 mg/kg-day; LOEL (Rattus norvegicus [4]; developmental, drinking water, M/F, Wistar, generation: F3, F3: T-maze (number of errors, retention phase) + F3: T-maze (number of sessions to reach learning criterion)): 16 mg/kg-day; LOEL (Rattus norvegicus [4]; developmental, drinking water, M, Wistar, generation: F1, F1: pain response (latency time to respond to hot plate)): 5.29 mg/kg-day; NOEL (Rattus norvegicus [4]; subchronic, duration: 6 weeks, drinking water, F, Sprague-Dawley, activity box (attention cluster, total time) + activity box (groom/attention cluster, total time) + activity box (groom/explore cluster, …): 21.4 mg/kg-day; LOEL (Rattus norvegicus [4]; subchronic, duration: 6 weeks, drinking water, F, Sprague-Dawley, activity box (groom cluster, initiations) + activity box (groom cluster, total time) + activity box (groom, initiations) + activity box (…): 21.4 mg/kg-day; LOEL (Rattus norvegicus [4]; subchronic, drinking water, M/F, Sprague-Dawley, generation: P0, P0: Morris water maze (escape time, acquisition, average over days 1-4) + P0: Morris water maze (platform crossing, probe test, day 5) + P0…): 3.27 mg/kg-day
